Test results taken from patent US9409952B2, “Peptide-compound cyclization method” (Chugai Seiyaku Kabushiki Kaisha, priority 2011, dated 2016).
Read-outs that look alike come from different tables or passages of the source. Starred links: 1 amine or outer side, 2 acyl side, 3 side chain; linkers in the order of their positions; H or OH if unused. Positions of bridges follow the written chain, without caps; N, C: chain ends. Non-standard residues stand in square brackets, D forms with d. Residues, ends and D or L forms follow the SMILES beside them. ξ: configuration not given here. *: point of attachment. Phe(3-(CH2)4CO) = O=C([C@H](Cc1cccc(CCCCC(=O)[*:3])c1)N[*:1])[*:2]; NEtPhe = CCN[C@@H](Cc1ccccc1)C(=O)O; hhPhe = N[C@@H](CCCc1ccccc1)C(=O)O; NMeF = CN[C@@H](Cc1ccccc1)C(=O)O; NMeGABA = CN(CCCC(=O)[*:2])[*:1]; NMeI = CC[C@H](C)[C@H](NC)C(=O)O; NMeβAla = CN(CCC(=O)[*:2])[*:1]; NMeL = CN[C@@H](CC(C)C)C(=O)O; ξNMeF = CNC(Cc1ccccc1)C(=O)O; NMeV = CN[C@H](C(=O)O)C(C)C; NMeA = CN[C@@H](C)C(=O)O; Piperidide = C1CCN(*)CC1; dNMeA = CN[C@H](C)C(=O)O; β3hA = C[C@H](N)CC(=O)O; Sar = CNCC(=O)O; tBu = CC(C)(C)*

What was measured:
[1] = Metabolic stability in human hepatic microsome; type: in vitro ADME; conditions: microsomes
[2] = PAMPA (parallel artificial membrane permeability assay); type: in vitro ADME; conditions: PAMPA
Outline: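 Artificial membrane was 10% (w/v) egg lecithin plus 0.5% (w/v) cholesterol in dodecane on a PVDF filter. A 10 mM DMSO stock was added at 0.5% (v/v) to donor buffer (50 mM MOPSO, pH 6.5, 5.0% glycocholic acid). After 18 h at 37 °C, LC/MS or LC/UV gave donor and acceptor levels for Pe.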

[3] = pH 7.4, human hepatic microsome, NADPH(+), read-out: CL NADPH(+)
[4] = membrane permeation rate (Pe), 50 mM MOPSO buffer pH 6.5 with 5.0% glycocholic acid, 37° C., 18 hours, read-out: iPAMPA Pe

Row | SMILES | microsomal CLint at 1 uM [1, 3] | Papp at 18 hours, 50 µM [2, 4] | microsomal CLint at 1 uM ([1]; human, pH 7.4, CL NADPH(+)) | Papp at 18 hours, 50 µM ([2]; pH 6.5)
1 | CC[C@H](C)[C@@H]1NC(=O)[C@H](CC(C)C)NC(=O)[C@H](C(C)C)NC(=O)[C@H](CC(C)C)N(C)C(=O)[C@H](CC(C)C)NC(=O)[C@H](Cc2ccccc2)NC(=O)[C@H]([C@@H](C)O)NC(=O)[C@H](CC(C)C)NC(=O)[C@H](Cc2ccccc2)NC(=O)[C@@H](C)N(C)C(=O)C[C@@H](C(=O)N2CCCCC2)NC1=O [DP-416] ([dNMeA]FLTFL[NMeL]VLID-Piperidide; lactam N-11) | 20 µL/min/mg | 0.23 ×10⁻⁶ cm/s |  | 
2 | CC[C@H](C)[C@@H]1NC(=O)CCN(C)C(=O)C[C@@H](C(=O)N2CCCCC2)NC(=O)[C@H](CC(C)C)N(C)C(=O)[C@H](Cc2ccccc2)NC(=O)[C@H](CC(C)C)N(C)C(=O)[C@H](CC(C)C)N(C)C(=O)[C@H](C)N(C)C(=O)[C@H](CC(C)C)N(C)C(=O)[C@H]([C@@H](C)O)NC(=O)[C@H](Cc2ccccc2)N(C)C(=O)[C@H](C)N(C)C(=O)[C@H](CC(C)C)N(C)C1=O [DP-958] ([NMeβAla]I[NMeL][NMeA][NMeF]T[NMeL][NMeA][NMeL][NMeL]F[NMeL]D-Piperidide; lactam N-13) | 31 µL/min/mg | 0.54 ×10⁻⁶ cm/s |  | 
3 | CC[C@H](C)[C@@H]1NC(=O)[C@H](C)NC(=O)C[C@@H](C(=O)N(C)[C@@H](CC(C)C)C(=O)N(C)[C@@H](C)C(=O)N(C)[C@@H](Cc2ccccc2)C(=O)N[C@@H](C)C(=O)N2CCCCC2)NC(=O)[C@@H]2CCCN2C(=O)[C@H](CC(C)C)NC(=O)[C@H](Cc2ccccc2)N(C)C(=O)[C@H]([C@@H](C)O)NC(=O)[C@H](Cc2ccccc2)N(C)C(=O)[C@H](C)N(C)C1=O [DP-667] (AI[NMeA][NMeF]T[NMeF]LPD[NMeL][NMeA][NMeF]A-Piperidide; lactam N-9) | 39 µL/min/mg | 19 ×10⁻⁶ cm/s |  | 
4 | CC(C)C[C@H]1C(=O)NCC(=O)N[C@H](C(=O)N2CCCCC2)CC(=O)N[C@H](C(C)C)C(=O)N[C@@H]([C@@H](C)O)C(=O)N(C)[C@@H](C)C(=O)N(C)[C@@H](Cc2ccccc2)C(=O)N(C)[C@@H](Cc2ccccc2)C(=O)N[C@@H](COC(C)(C)C)C(=O)N1C [DP-176] ([dV]T[NMeA][NMeF][NMeF]S(tBu)[NMeL]GD-Piperidide; lactam N-9) | 47 µL/min/mg | 25 ×10⁻⁶ cm/s |  | 
5 | CC[C@H](C)[C@H]1C(=O)N[C@@H](COC(C)(C)C)C(=O)N[C@@H](C)CC(=O)N(C)[C@@H](C)C(=O)N(C)[C@@H](CC(C)C)C(=O)N(C)CC(=O)N(C)[C@@H](CC(C)C)C(=O)N[C@@H]([C@@H](C)O)C(=O)N(C)[C@@H](C)C(=O)N(C)[C@@H](CC(C)C)C(=O)N1C [DP-804] (cyclo([NMeA][NMeL][NMeI]S(tBu)[β3hA][NMeA][NMeL][Sar][NMeL]T)) | 40 µL/min/mg | 29 ×10⁻⁶ cm/s |  | 
6 | CC(C)C[C@H]1C(=O)N(C)[C@@H](C)C(=O)N(C)[C@@H](Cc2ccccc2)C(=O)N[C@@H]([C@@H](C)O)C(=O)N(C)[C@@H](C)C(=O)N(C)[C@@H](Cc2ccccc2)C(=O)N[C@H](C(=O)N(C)[C@@H](Cc2ccccc2)C(=O)N[C@@H](C)C(=O)N2CCCCC2)CC(=O)N(C)[C@@H](C)C(=O)N(C)[C@@H](C)C(=O)N(C)[C@@H](CC(C)C)C(=O)N[C@@H](C)C(=O)N1C [DP-344] ([NMeA][NMeA][NMeL]A[NMeL][NMeA][NMeF]T[NMeA][NMeF]D[NMeF]A-Piperidide; lactam N-11) | 30 µL/min/mg | 22 ×10⁻⁶ cm/s |  | 
7 | CC(C)C[C@H]1C(=O)N[C@@H](COC(C)(C)C)C(=O)N[C@H](C(=O)N2CCCCC2)CC(=O)N[C@@H](C)C(=O)N(C)[C@@H](C)C(=O)N(C)[C@@H](Cc2ccccc2)C(=O)N(C)[C@@H](CC(C)C)C(=O)N[C@@H]([C@@H](C)O)C(=O)N(C)CC(=O)N1C [DP-38] (A[NMeA][NMeF][NMeL]T[Sar][NMeL]S(tBu)D-Piperidide; lactam N-9) |  |  | 55 µL/min/mg | 16 ×10⁻⁶ cm/s
8 | CCN1C(=O)CCCCc2cccc(c2)C[C@@H](C(=O)N2CCCCC2)NC(=O)[C@H](CC(C)C)N(C)C(=O)CN(C)C(=O)[C@H]([C@@H](C)O)NC(=O)[C@H](CC(C)C)N(C)C(=O)[C@H](Cc2ccccc2)N(C)C(=O)[C@H](C)NC(=O)[C@@H]1Cc1ccccc1 [DP-863] ([NEtPhe]A[NMeF][NMeL]T[Sar][NMeL][Phe(3-(CH2)4CO)]-Piperidide; lactam N-8) |  |  | 927 µL/min/mg | 35 ×10⁻⁶ cm/s
9 | CC[C@H](C)[C@@H]1NC(=O)[C@H](CC(C)C)N(C)C(=O)CCCN(C)C(=O)C[C@@H](C(=O)N2CCCCC2)NC(=O)[C@H](CC(C)C)N(C)C(=O)[C@H](C)N(C)C(=O)[C@H]([C@@H](C)O)NC(=O)[C@H](CC(C)C)N(C)C(=O)[C@H](COC(C)(C)C)NC(=O)[C@H](Cc2ccccc2)N(C)C(=O)[C@H](Cc2ccccc2)N(C)C1=O [DP-114] ([NMeGABA][NMeL]I[NMeF][NMeF]S(tBu)[NMeL]T[NMeA][NMeL]D-Piperidide; lactam N-11) |  |  | 56 µL/min/mg | 44 ×10⁻⁶ cm/s
10 | CC(C)C[C@H]1C(=O)N[C@@H](C)C(=O)N(C)[C@@H](C)C(=O)N[C@@H](C)CC(=O)N(C)[C@@H](C)C(=O)N[C@@H]([C@@H](C)O)C(=O)N(C)CC(=O)N(C)[C@@H](Cc2ccccc2)C(=O)N(C)[C@@H](Cc2ccccc2)C(=O)N(C)[C@@H](C)C(=O)N2CCC[C@H]2C(=O)N1C [DP-765] (cyclo(A[NMeA][β3hA][NMeA]T[Sar][NMeF][NMeF][NMeA]P[NMeL])) |  |  | 13 µL/min/mg | 3 ×10⁻⁶ cm/s
11 | CC(C)C[C@H]1C(=O)N[C@@H](Cc2ccccc2)C(=O)N[C@@H]([C@@H](C)O)C(=O)N(C)[C@@H](C)C(=O)N(C)[C@@H](Cc2ccccc2)C(=O)N(C)[C@@H](C(C)C)C(=O)NCC(=O)N[C@H](C(=O)N(C)[C@@H](Cc2ccccc2)C(=O)N[C@@H](C)C(=O)N2CCCCC2)CC(=O)N(C)[C@H](C)C(=O)N[C@@H](C)C(=O)N1C [DP-355] ([dNMeA]A[NMeL]FT[NMeA][NMeF][NMeV]GD[NMeF]A-Piperidide; lactam N-10) | 66 µL/min/mg | 17 ×10⁻⁶ cm/s |  | 
12 | CC(C)C[C@@H]1NC(=O)[C@H]([C@@H](C)O)NC(=O)[C@@H]2CCCN2C(=O)CNC(=O)[C@H](CC(C)C)N(C)C(=O)[C@H](Cc2ccccc2)NC(=O)[C@H](CC(C)C)N(C)C(=O)[C@H](CC(C)C)N(C)C(=O)[C@H](Cc2ccccc2)NC(=O)CN(C)C(=O)C[C@@H](C(=O)N(C)C(Cc2ccccc2)C(=O)N[C@@H](C)C(=O)N2CCCCC2)NC1=O (stereo partly drawn) [DP-185] ([Sar]F[NMeL][NMeL]F[NMeL]GPTLD[ξNMeF]A-Piperidide; lactam N-11) | 19 µL/min/mg | 46 ×10⁻⁶ cm/s |  | 
13 | CC[C@H](C)[C@H]1C(=O)N(C)[C@@H](CC(C)C)C(=O)N(C)[C@@H](Cc2ccccc2)C(=O)N[C@@H](CC(C)C)C(=O)N(C)[C@@H](C(C)C)C(=O)N[C@@H](Cc2ccccc2)C(=O)N[C@@H]([C@@H](C)O)C(=O)N[C@H](C(=O)N2CCCCC2)CC(=O)N(C)CCC(=O)N[C@@H](C)C(=O)N1C [DP-259] ([NMeβAla]A[NMeI][NMeL][NMeF]L[NMeV]FTD-Piperidide; lactam N-10) | 91 µL/min/mg | 28 ×10⁻⁶ cm/s |  | 
14 | CC(C)C[C@@H]1NC(=O)[C@H](C(C)C)N(C)C(=O)[C@H](CCCc2ccccc2)NC(=O)CN(C)C(=O)[C@H]([C@@H](C)O)NC(=O)[C@H](C)N(C)C(=O)[C@H](CC(C)C)N(C)C(=O)[C@@H](C(C)C)NC(=O)C[C@@H](C(=O)N2CCCCC2)NC(=O)[C@H](C)NC(=O)[C@H](CC(C)C)N(C)C1=O [DP-737] ([dV][NMeL][NMeA]T[Sar][hhPhe][NMeV]L[NMeL]AD-Piperidide; lactam N-11) | 45 µL/min/mg | 30 ×10⁻⁶ cm/s |  | 
15 | CC(C)C[C@H]1C(=O)N[C@H](C(=O)N(C)[C@@H](Cc2ccccc2)C(=O)N[C@@H](C)C(=O)N2CCCCC2)CC(=O)N(C)CCC(=O)N[C@@H]([C@@H](C)O)C(=O)N(C)[C@@H](C)C(=O)N(C)[C@@H](CC(C)C)C(=O)N[C@@H](C(C)C)C(=O)N(C)[C@@H](Cc2ccccc2)C(=O)N[C@@H](Cc2ccccc2)C(=O)N1C [DP-379] ([NMeβAla]T[NMeA][NMeL]V[NMeF]F[NMeL]D[NMeF]A-Piperidide; lactam N-9) | 236 µL/min/mg | 41 ×10⁻⁶ cm/s |  | 
16 | CC(C)C[C@H]1C(=O)N(C)[C@@H](C)C(=O)N[C@@H](C)C(=O)N[C@@H](C)CC(=O)N(C)CCC(=O)N(C)[C@@H](Cc2ccccc2)C(=O)N(C)[C@@H](C)C(=O)N[C@@H]([C@@H](C)O)C(=O)N(C)[C@@H](C)C(=O)N[C@@H](Cc2ccccc2)C(=O)N(C)[C@@H](C(C)C)C(=O)N1C [DP-763] (cyclo(A[β3hA][NMeβAla][NMeF][NMeA]T[NMeA]F[NMeV][NMeL][NMeA])) |  |  | 15 µL/min/mg | 2.5 ×10⁻⁶ cm/s
17 | CC[C@H](C)[C@H]1C(=O)N[C@H](C(=O)N2CCCCC2)CC(=O)N[C@H](C)C(=O)N(C)[C@@H](Cc2ccccc2)C(=O)N(C)[C@@H](CC(C)C)C(=O)N[C@@H]([C@@H](C)O)C(=O)N(C)CC(=O)N(C)[C@@H](CC(C)C)C(=O)N[C@@H](COC(C)(C)C)C(=O)N1C [DP-77] ([dA][NMeF][NMeL]T[Sar][NMeL]S(tBu)[NMeI]D-Piperidide; lactam N-9) |  |  | 33 µL/min/mg | 21 ×10⁻⁶ cm/s
18 | CC(C)C[C@H]1C(=O)N[C@@H]([C@@H](C)O)C(=O)N[C@H](C(=O)N(C)[C@@H](Cc2ccccc2)C(=O)N(C)[C@@H](Cc2ccccc2)C(=O)N[C@@H](C)C(=O)N2CCCCC2)CC(=O)N(C)[C@@H](C)C(=O)N(C)CC(=O)N(C)[C@@H](Cc2ccccc2)C(=O)N(C)[C@@H](C)C(=O)N[C@@H](C)C(=O)N(C)[C@@H](C)C(=O)N1C [DP-406] ([NMeA][Sar][NMeF][NMeA]A[NMeA][NMeL]TD[NMeF][NMeF]A-Piperidide; lactam N-9) | 11 µL/min/mg | 4.4 ×10⁻⁶ cm/s |  | 
